These results are taken from US20230233606A1, “Cell” (AUTOLUS LIMITED, priority 2019, published 2023).

Type in all cases: cell-based
In data set [1] the test system is SupT1 CD22 High. Kind of data set: FBK assay with or without 3-IB-PP1, Example 4, SupT1 CD22 High. The settings on record: 3-IB-PP1 10 uM; T cells expressing CSK^AS; CD22 High (20,262 molecules per cell); E:T 1:4; 72 h. As for the experimental part: (§1) Analysis by flow cytometry was carried out at 72 h post co-culture set up. Each condition was tested with a minimum of 6 donors (n=6), with median indicated. All data was normalised to NT T cells. T cells were co-cultured with SupT1 NT (left), SupT1 CD22 High (middle) or SupT1 CD22 Low (right) target cells at an E:T ratio of 1:4. Statistics were run using a paired t-test. *P<0.05, **P<0.01, ***P<0.001, ****P<0.0001.
(§2) PBMCs were either left untransduced or transduced with one of the constructs. The capacity of the CAR-T cells to kill target cells expressing CD22 was investigated using a FACS-based killing (FBK) assay. […] Two different types of CD22-expressing SupT1 target cells were generated, one expressing CD22 at a low density (average number of CD22 molecules per cell: 3,309) and one expressing CD22 at a high density (average number of CD22 molecules per cell: 20,262).

The test system of data set [2] is SupT1 CD22 Low. Kind of data set: FBK assay with or without 3-IB-PP1, Example 4, SupT1 CD22 Low. As to conditions: 3-IB-PP1 10 uM; T cells expressing CSK^AS; CD22 Low (3,309 molecules per cell); E:T 1:4; 72 h. Here is the method: as §1, §2
Data set [3] concerns SupT1 CD22 High. Briefly: IL-2 release ELISA, Example 4, SupT1 CD22 High. The settings on record: 3-IB-PP1 10 uM, CSK^AS expressing T cells, E:T 1:4, 72 h. As for the experimental part: (§3) Supernatant taken at 72 h post co-culture set up was analysed by ELISA for the presence of IL-2. Each condition was tested with a minimum of 6 donors (n=6), with median indicated. T cells were co-cultured with SupT1 NT (left), SupT1 CD22 High (middle) or SupT1 CD22 Low (right) target cells at an E:T ratio of 1:4.
(§4) In order to investigate cytokine release, supernatant was taken at 72 h post co-culture set up and analysed by ELISA for the presence of IL-2 and IFN-γ.
For orientation: An ELISA detects its analyte on a solid surface through an enzyme-linked reagent.

Data set [4] concerns SupT1 CD22 Low. Kind of data set: IL-2 release ELISA, Example 4, SupT1 CD22 Low. The settings on record: 3-IB-PP1 10 uM, CSK^AS expressing T cells, E:T 1:4, 72 h. As for the experimental part:
as §3, §4

The subject of data set [5] is SupT1 CD22 High. Briefly: IFN-γ release ELISA, Example 4, SupT1 CD22 High. As to conditions: 3-IB-PP1 10 uM, T cells expressing CSK^AS, E:T 1:4, 72 h. As for the experimental part: (§5) Supernatant taken at 72 h post co-culture set up was analysed by ELISA for the presence of IFN-γ. Each condition was tested with a minimum of 6 donors (n=6), with median indicated. T cells were co-cultured with SupT1 NT (left), SupT1 CD22 High (middle) or SupT1 CD22 Low (right) target cells at an E:T ratio of 1:4.
as §4

The subject of data set [6] is SupT1 CD22 Low. Kind of data set: IFN-γ release ELISA, Example 4, SupT1 CD22 Low. As to conditions: 3-IB-PP1 10 uM, T cells expressing CSK^AS, E:T 1:4, 72 h. Here is the method: as §5, §4
For data set [7], the system named is SupT1 CD22 High. Briefly: FBK assay with increasing concentrations of 3-IB-PP1, Example 5. The settings on record: 3-IB-PP1 0.156 uM-10 uM; T cells expressing CSK^AS; CD22 High (6,309 molecules per cell); E:T 1:4; 72 h. Here is the method:
(§6) Analysis by flow cytometry was carried out at 72 h post co-culture set up. Each condition was tested with a minimum of 3 donors (n=3), with median indicated. All data was normalised to NT T cells. T cells were co-cultured with SupT1 NT (left) or SupT1 CD22 High (right) target cells at an E:T ratio of 1:4.
(§7) The co-culture described in Example 4 was repeated, but this time with increasing concentrations of 3-IB-PP1 (0.156 uM-10 uM).

Data set [8] relates to SupT1 CD22 High. Briefly: IFN-γ release with increasing concentrations of 3-IB-PP1, Example 5. As to conditions: 3-IB-PP1 0.156 uM-10 uM, T cells expressing CSK^AS, E:T 1:4, 72 h. As for the experimental part: as §6, §7

For `CC(C)(C)n1nc(Cc2cccc(I)c2)c2c(N)ncnc21` [3-IB-PP1, 3-iodo-benzyl-PP1], the cytotoxicity entry is reported as “significantly increased compared to the media condition” in the data set with SupT1 CD22 High [1], “significantly increased compared to the media condition” in the data set on SupT1 CD22 Low [2] and “increased in a dose-dependent manner” in the data set with SupT1 CD22 High [7]. The IL-2 release entry in the data set with SupT1 CD22 High [3] and in the data set with SupT1 CD22 Low [4] was “increased levels of IL-2” throughout. For the same molecule, the IFN-γ release entry in the data set on SupT1 CD22 High [5] and with SupT1 CD22 Low [6] was “significantly higher IFN-γ concentrations compared to the media condition” in each case. Also, in the data set with SupT1 CD22 High [8], the IFN-γ production entry is reported as “increased in a dose-dependent manner”.
